Source: patent publication US7842726B2, “Carnitine derivative, salt thereof, external skin preparation and cosmetic material” (Showa Denko K.K., priority 2005, dated 2010)
Where a name gives a salt, the structure may show the parent alone.

Experiments:
[1] = Percutaneous absorption through three-dimensional human skin model, two-chamber test; format: in vitro ADME; settings: 0.3% by mass solution, pH 7, 35° C., after 24 hours; compared with L-carnitine palmitate; FIG. 1
Method: The test substances were each dissolved in Dulbecco's PBS (−) containing 5% by mass of 1,2-hexanediol, followed by adding 1N NaOH to adjust the pH to 7. Consequently, 0.3% by mass solutions of the test substances were prepared. Two chambers were separated through a three-dimensional model of human skin tissue (TESTSKIN™ LSD-d, available from TOYOBO CO., LTD.). 3 ml of each test substance solution was placed into a chamber on the epidermis side, and 3 ml of Dulbecco's PBS (−) was placed into a chamber on the dermis side. They were stirred with magnetic stirrers at 35° C. for 24 hours.
After the lapse of 24 hours, 1 ml of the buffer solution in the dermis-side chamber was collected, and 0.5 ml of the solution collected was analyzed to determine free carnitine. The remaining portion of the solution collected was adjusted to pH 11 with 1N NaOH, was encapsulated in a 1.5 ml screw vial, and was allowed to stand at 80° C. for 6 hours, followed by cooling. The pH of the solution was adjusted to 7 with 1N HCl, whereby all acylcarnitine derivatives were decomposed to free carnitine. These solutions were each combined with 0.02 ml of 1N hydrochloric acid, 0.1 ml of 1.6% by mass 1-aminoanthracene-in acetone solution and 0.1 ml of 16% by mass aqueous EDC (1-ethyl-3-(3-dimethylaminopropyl)carbodiimide hydrochloride) solution, followed by sufficient stirring. The solutions were allowed to stand still at room temperature for 20 minutes and were washed with 3 ml of diethylether. The aqueous phases were filtered and were analyzed by reversed-phase high performance liquid chromatography (RPHPLC) (column: Phenomenex Synergi-RP, eluting solution: 45% acetonitrile, flow rate: 1.0 ml/min) to determine peak intensities assigned to 1-aminoanthracene-modified carnitine (excitation wavelength: 248 nm, fluorescent wavelength: 418 nm). The concentrations of carnitine derivatives and free carnitine originating from the test substances in the solution in the dermis-side chamber were calculated and determined from the aforesaid peak intensities. […]

[2] = Stability of carnitine derivatives in aqueous solution at 80° C. (RPHPLC); format: physicochemical; settings: 0.3% by mass in PBS(-) with 5% 1,2-hexanediol, pH 7, 80° C.; changes with time; FIG. 2
Method: The test substances were each dissolved in Dulbecco's PBS (−) containing 5% by mass of 1,2-hexanediol, followed by adding 1N NaOH to adjust the pH to 7. Consequently, 0.3% by mass solutions of the test substances were prepared. The solutions were tightly encapsulated in glass vials and were temperature controlled at 80° C. in a water bath.
After the lapse of a predetermined time, the solutions were collected and were analyzed by RPHPLC (column: Shodex C8-5B, eluting solution: 70% acetonitrile, flow rate: 1.0 ml/min). The remaining carnitine derivatives originating from the test substances were determined from the UV absorption intensity at 210 nm.

[3] = system: Human preadipocytes; assay: Fat breakdown stimulation: triglyceride accumulation in adipocytes (oil red staining, colorimetry); format: cell-based; settings: for effect of stimulating fat metabolism: conclusion from Table 2, 50 μM, 5 days; for Triglyceride accumulation: relative to untreated adipocytes (100), 50 μM test substance, 5 days incubation
Method: Human preadipocytes (available from TOYOBO Co., LTD.) were seeded on a 96-well microplate and were incubated at 37° C. and 5% CO2 using human preadipocyte growth medium TAGM (available from TOYOBO Co., LTD.) while renewing the medium every two days. The growth medium was changed to human adipocyte differentiation medium TADM (available from TOYOBO Co., LTD.), and incubation was carried out for 5 days. Subsequently, the medium was changed to an evaluation medium as shown in Table 1 below without or with 50 μM of any of the test substances described below. The incubation was carried out for 5 days.
The adipocytes were washed with Dulbecco's PBS (−) three times and were formalin fixed. The adipocytes were stained with an oil red/water-isopropanol (1/1) solution, and were extracted with isopropanol. Triglyceride accumulated in the adipocytes was determined by a colorimetry method.

**Q.** What does the source list for `CCCCCCC(CCCC)C(=O)OC(CC(=O)[O-])C[N+](C)(C)C` [L-carnitine 2-butyloctanoate hydrochloride]?
**A.** L-carnitine concentration (carnitine derivatives and free carnitine) passed to the dermis-side chamber [1]: comparable or higher L-carnitine concentrations than that obtained with L-carnitine palmitate; residual ratio of carnitine derivatives in aqueous solution [2]: higher residual ratio and were exceptionally more stable in aqueous solutions than the acylcarnitines having a straight-chain acyl group; effect of stimulating fat metabolism [3]: good effects of stimulating fat metabolism; Triglyceride accumulation [3]: 90

**Q.** For `CCCCCCCCC(CCCCCC)C(=O)OC(CC(=O)[O-])C[N+](C)(C)C` [L-carnitine 2-hexyldecanoate hydrochloride], which “L-carnitine concentration (carnitine derivatives and free carnitine) passed to the dermis-side chamber” value [1] is on record?
**A.** The value was “comparable or higher L-carnitine concentrations than that obtained with L-carnitine palmitate”.

**Q.** What about the “residual ratio of carnitine derivatives in aqueous solution” value [2] of the same molecule?
**A.** The value was “higher residual ratio and were exceptionally more stable in aqueous solutions than the acylcarnitines having a straight-chain acyl group”.

**Q.** And the “effect of stimulating fat metabolism” value [3]?
**A.** Its value is “good effects of stimulating fat metabolism”.

**Q.** What about the Triglyceride accumulation [3] of the same molecule?
**A.** The Triglyceride accumulation was 89.

**Q.** Which “L-carnitine concentration (carnitine derivatives and free carnitine) passed to the dermis-side chamber” value [1] does the source give for `CCCCCCCCCCCCCCC(C)C(=O)OC(CC(=O)[O-])C[N+](C)(C)C` [L-carnitine 2-methylpalmitate hydrochloride] here?
**A.** Its value is “comparable or higher L-carnitine concentrations than that obtained with L-carnitine palmitate”.

**Q.** What about the “residual ratio of carnitine derivatives in aqueous solution” value [2] of the same molecule?
**A.** The value was “higher residual ratio and were exceptionally more stable in aqueous solutions than the acylcarnitines having a straight-chain acyl group”.

**Q.** And the “effect of stimulating fat metabolism” value [3]?
**A.** The value was “good effects of stimulating fat metabolism”.

**Q.** What about the Triglyceride accumulation [3] of the same molecule?
**A.** Its Triglyceride accumulation is 89.

**Q.** For `C[N+](C)(C)C[C@H](O)CC(=O)[O-].Cl` [L-carnitine hydrochloride, reference compound], which Triglyceride accumulation [3] is on record?
**A.** The Triglyceride accumulation was 98.

**Q.** With `CCCCCCCCCCCCCCCC(=O)O[C@H](CC(=O)[O-])C[N+](C)(C)C.Cl` [L-carnitine palmitate hydrochloride, reference compound] as the molecule, how does the Triglyceride accumulation [3] read?
**A.** The Triglyceride accumulation was 87.
